Assay results taken from US11236055B2 (Venenum Biodesign, LLC, priority 2016, dated 2022).
Where a name gives a salt, the structure may show the parent alone.

How the values were obtained:
[1] = biological target: T1, human TGR5 receptor (Homo sapiens, UniProt Q8TDU6); assay: Human TGR5 cAMP production assay; type: cell-based; settings: human TGR5, luminescent cAMP assay; coded A-D; read-out: Human TGR5 Lum. cAMP Activity (EC50)
T1 construct: host or cells: CHO-K1 (hTGR5-CHO cells)
T1 sequence (Q8TDU6 1-330): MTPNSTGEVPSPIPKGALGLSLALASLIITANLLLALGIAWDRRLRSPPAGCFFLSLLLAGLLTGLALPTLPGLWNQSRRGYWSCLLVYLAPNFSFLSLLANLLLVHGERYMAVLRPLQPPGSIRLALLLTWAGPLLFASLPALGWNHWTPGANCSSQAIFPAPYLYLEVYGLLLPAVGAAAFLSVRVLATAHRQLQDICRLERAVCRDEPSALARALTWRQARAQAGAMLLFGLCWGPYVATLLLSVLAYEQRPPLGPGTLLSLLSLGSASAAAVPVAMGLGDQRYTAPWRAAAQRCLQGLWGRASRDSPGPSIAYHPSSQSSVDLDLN
Summary of the method: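 Intracellular cAMP read by luminescent enzyme-complementation (XS+) after overnight development, following 1 h room-temperature compound treatment of hTGR5-CHO-K1 cells in IBMX plus anti-cAMP antibody. Compounds tested as half-log dilution series; EC50 derived.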

[2] = biological target: T2, mouse TGR5 receptor (Mus musculus, UniProt Q80SS6); assay: Mouse TGR5 cAMP production assay (HTRF, Cisbio cAMP HiRange); type: cell-based; settings: HEK293-EBNA cells overexpressing mouse TGR5, HTRF cAMP HiRange; coded A-D
T2 construct: expressed in transfected cells; host or cells: HEK293-EBNA (293 c18, ATCC CRL10852), Hygromycin B selection
T2 sequence (Q80SS6 1-329): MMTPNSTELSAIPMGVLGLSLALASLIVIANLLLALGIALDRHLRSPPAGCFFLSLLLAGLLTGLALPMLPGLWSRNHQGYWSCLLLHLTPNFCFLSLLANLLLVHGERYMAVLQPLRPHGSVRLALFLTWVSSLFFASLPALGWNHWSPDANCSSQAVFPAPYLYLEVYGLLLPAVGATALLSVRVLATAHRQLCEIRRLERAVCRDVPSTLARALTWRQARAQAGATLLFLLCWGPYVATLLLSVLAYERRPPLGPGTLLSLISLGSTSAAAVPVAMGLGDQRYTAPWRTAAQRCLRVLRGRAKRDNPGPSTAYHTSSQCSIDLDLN
Summary of the method: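 cAMP read by HTRF competition after 1 h room-temperature compound exposure of mouse TGR5-overexpressing HEK293-EBNA cells. Cells were suspended in serum-free DMEM containing 500 μM IBMX; compounds ran as 12-point half-log dilutions in duplicate; EC50 derived.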

EC50 [1] [nM]	EC50 [2] [nM]	Structure (SMILES)
< 100	100 to 999	CCOC(=O)CCN/C(=N/C#N)NCCCN(C(C)(C)c1cccc(-c2ccncc2C)c1)S(=O)(=O)c1cccc(Cl)c1C [Compound 25A, Ethyl (E)-3-(3-(3-((3-chloro-2-methyl-N-(2-(3-(3-methylpyridin-4-yl)phenyl)propan-2-yl)phenyl)sulfonamido)propyl)-2-cyanoguanidino)propanoate]
1000 to 30000	1000 to 30000	CN(C)c1cc(-c2cccc(C(C)(C)NS(=O)(=O)c3ccccc3C(F)(F)F)c2)ccn1 [Compound 6AB, N-(2-(3-(2-(dimethylamino)-pyridin-4-yl)phenyl)propan-2-yl)-2-(trifluoromethyl)benzenesulfonamide]
< 100	100 to 999	Cc1cnccc1-c1cccc(C(C)(C)N(CCCNS(=O)(=O)CCN)S(=O)(=O)c2cccc(Cl)c2C)c1 [Compound 26, N-(3-((2-aminoethyl)sulfonamido)propyl)-3-chloro-2-methyl-N-(2-(3-(3-methylpyridin-4-yl)phenyl)propan-2-yl)benzenesulfonamide]
< 100	100 to 999	Cc1cnccc1-c1cccc([C@H](C)N(CCCC(N)=O)S(=O)(=O)c2cccc(Cl)c2C)c1 [Compound 20AY, (S)-4-(3-Chloro-2-methyl-N-(1-(3-(3-methylpyridin-4-yl)phenyl)ethyl)phenylsulfonamido)butanamide]
< 100	1000 to 30000	COC(=O)c1cnccc1-c1cccc(C(C)(C)NS(=O)(=O)c2ccccc2C(F)(F)F)c1 [Compound 6, Methyl 4-(3-(2-(2-(trifluoromethyl)phenylsulfonamido)propan-2-yl)phenyl)nicotinate]
< 100	100 to 999	CCc1cnccc1-c1cccc([C@H](C)N(CCCC(=O)NCC[N+](C)(C)C)S(=O)(=O)c2cccc(Cl)c2C)c1 [Compound 27AE, (S)-2-(4-(3-chloro-N-(1-(3-(3-ethylpyridin-4-yl)phenyl)ethyl)-2-methylphenylsulfonamido)butanamido)-N,N,N-trimethylethanaminium]
100 to 999	< 100	Cc1cnccc1-c1cccc(C2CN(CCCC(=O)NCCS(=O)(=O)O)CCN2S(=O)(=O)c2cccc(Cl)c2C)c1 (stereo not shown) [Compound 53AA, 2-(4-(4-((3-chloro-2-methylphenyl)sulfonyl)-3-(3-(3-methylpyridin-4-yl)phenyl)piperazin-1-yl)butanamido)ethanesulfonic acid]
< 100	100 to 999	Cc1cnccc1-c1cccc(C(C)(C)N(CCCC(=O)NCCN(C)C)S(=O)(=O)c2cccc(Cl)c2C)c1 [Compound 21AD, 4-(3-chloro-2-methyl-N-(2-(3-(3-methylpyridin-4-yl)phenyl)propan-2-yl)phenylsulfonamido)-N-(2-(dimethyl-amino)ethyl)butanamide]
100 to 999	< 100	CCc1cnccc1-c1cccc(C2CN(C(=O)[C@@H](N)CS(=O)(=O)O)CCN2S(=O)(=O)c2cccc(Cl)c2C)c1 (mixture of isomers) [Compound 48, (2R)-2-amino-3-(4-((3-chloro-2-methylphenyl)sulfonyl)-3-(3-(3-ethylpyridin-4-yl)phenyl)piperazin-1-yl)-3-oxopropane-1-sulfonic acid hydrochloride]
< 100	100 to 999	Cc1cnccc1-c1cccc([C@H](C)N(CCCCC(=O)NC[C@@H](O)[C@H](O)[C@@H](O)[C@@H](O)CO)S(=O)(=O)c2cccc(Cl)c2C)c1 [Compound 20AI, 5-(3-chloro-2-methyl-N-((S)-1-(3-(3-methylpyridin-4-yl)phenyl)ethyl)phenylsulfonamido)-N-((2R,3S,4S,5S)-2,3,4,5,6-pentahydroxyhexyl)pentanamide]
100 to 999	100 to 999	Cc1cnccc1-c1cccc([C@H](CCCC(=O)NCS(=O)(=O)O)NS(=O)(=O)c2ccccc2C(F)(F)F)c1 [Compound 20BR, (S)-(5-(3-(3-methylpyridin-4-yl)phenyl)-5-(2-(trifluoromethyl)phenylsulfonamido)pentanamido)methanesulfonic acid]
100 to 999	< 100	CC(=O)N1CCN(S(=O)(=O)c2ccccc2C(F)(F)F)C(c2cccc(-c3ccncc3C)c2)C1 (stereo not shown) [Compound 45, 1-(3-(3-(3-methylpyridin-4-yl)phenyl)-4-((2-(trifluoromethyl)phenyl)sulfonyl)piperazin-1-yl)ethanone]
< 100	100 to 999	Cc1cnccc1-c1cccc([C@H](C)NS(=O)(=O)c2ccccc2C(F)(F)F)c1 [Compound 5AR, (S)-N-(1-(3-(3-methylpyridin-4-yl)phenyl)ethyl)-2-(trifluoromethyl)benzenesulfonamide]
< 100	< 100	Cc1cnccc1-c1cccc(C(C)(C)NS(=O)(=O)c2cccc(Cl)c2C)c1 [Compound 2BU]
100 to 999	100 to 999	Cc1cnccc1-c1cccc(C(C)N(CCCNc2c(NCCC(=O)O)c(=O)c2=O)S(=O)(=O)c2cccc(Cl)c2C)c1 (stereo not shown) [Compound 32AB]
100 to 999	< 100	Cc1c(Cl)cccc1S(=O)(=O)N1CCN(C(=O)CCC(=O)O)CC1c1cccc(-c2ccncc2Cl)c1 (stereo not shown) [Compound 46AG, 4-(4-((3-chloro-2-methylphenyl)sulfonyl)-3-(3-(3-chloropyridin-4-yl)phenyl)piperazin-1-yl)-4-oxobutanoic acid]
100 to 999	100 to 999	CC(=O)N(CCCCN([C@@H](C)c1cccc(-c2ccncc2C)c1)S(=O)(=O)c1cccc(Cl)c1C)CCC(=O)O [Compound 34, (S)-3-(N-(4-(3-chloro-2-methyl-N-(1-(3-(3-methylpyridin-4-yl)phenyl)ethyl)phenylsulfonamido)butyl)acetamido)propanoic acid]
100 to 999	100 to 999	Cc1cnccc1-c1cccc([C@H](C)N(CCCCNCCC(=O)O)S(=O)(=O)c2cccc(Cl)c2C)c1 [Compound 33, (S)-3-((4-(3-chloro-2-methyl-N-(1-(3-(3-methylpyridin-4-yl)phenyl)ethyl)phenylsulfonamido)butyl)amino)propanoic acid]
100 to 999	> 30000	Cc1c(Cl)cccc1S(=O)(=O)N(CCCC(=O)NCCS(=O)(=O)O)[C@@H](C)c1cccc(-c2ccnnc2)c1 [Compound 20BO, (S)-2-(4-(3-chloro-2-methyl-N-(1-(3-(pyridazin-4-yl)phenyl)ethyl)phenylsulfonamido)butanamido)ethanesulfonic acid]
< 100	100 to 999	Cc1cnccc1-c1cccc([C@H](C)N(CCCCNC(=O)NCCS(=O)(=O)O)S(=O)(=O)c2ccccc2C(F)(F)F)c1 [Compound 28AB, (S)-2-(3-(4-(N-(1-(3-(3-methylpyridin-4-yl)phenyl)ethyl)-2-(trifluoromethyl)phenylsulfonamido)butyl)ureido)ethanesulfonic acid]
100 to 999	1000 to 30000	Cc1cnccc1-c1cccc([C@@H](C)N(CCCC(=O)O)S(=O)(=O)c2cccc(Cl)c2C)c1 [Compound 16AA, (R)-4-(3-chloro-2-methyl-N-(1-(3-(3-methylpyridin-4-yl)-phenyl)ethyl)phenylsulfonamido)butanoic acid]
100 to 999	< 100	CCc1cnccc1-c1cccc(C2CN(C(=O)CCC(=O)NCCS(=O)(=O)O)CCN2S(=O)(=O)c2cccc(Cl)c2C)c1 (stereo not shown) [Compound 53AB, 2-(4-(4-((3-chloro-2-methylphenyl)sulfonyl)-3-(3-(3-ethylpyridin-4-yl)phenyl)piperazin-1-yl)-4-oxobutanamido)ethanesulfonic acid]
100 to 999	100 to 999	Cc1cnccc1-c1cccc([C@H](CCCC(=O)O)NS(=O)(=O)c2ccccc2C(F)(F)F)c1 [Compound 19AA, (S)-5-(3-(3-methylpyridin-4-yl)phenyl)-5-(2-(trifluoromethyl)phenylsulfonamido) pentanoic acid]
< 100	100 to 999	COc1cnccc1-c1cccc(C(C)(C)NS(=O)(=O)c2cccc(C(F)(F)F)c2C)c1 [Compound 2BM]
1000 to 30000	1000 to 30000	CC[C@H](NS(=O)(=O)c1ccccc1C(F)(F)F)c1cccc(-c2ccc3nccn3c2)c1 [Compound 5AX, (S)-N-(1-(3-(imidazo[1,2-a]pyridin-6-yl)phenyl)propyl)-2-(trifluoromethyl)benzenesulfonamide]
1000 to 30000	1000 to 30000	COC(=O)C(NS(=O)(=O)c1cccc(C(F)(F)F)c1)c1cccc(-c2ccncc2OC)c1 (stereo not shown) [Compound 1CE]
